From patent US9056111B1, “Selective efflux inhibitors and related pharmaceutical compositions and methods of treatment” (STC.UNM, priority 2011, dated 2015)
Several values for one entry are separate records, joined by “and”; a condition that tells them apart may be missing. Identical values can stand only once.

Experiments:
[1] = test system: Ig-MXP3 cells; experiment: Direct cytotoxicity (Toxic Dose 50) without chemotherapeutic; type: cell-based; conditions: Ig-MXP3 cells, inhibitor without chemotherapeutic
[2] = test system: ABCG2 over-expressing Ig-MXP3 cells; experiment: Chemoreversal assay: potentiation of mitoxantrone (MTX) killing; type: cell-based; conditions: Ig-MXP3 cells, constant 30 nM MTX, varied inhibitor dose; read-out: CR50 ABCG2
[3] = test system: Jurkat-DNR cells; experiment: Direct cytotoxicity (Toxic Dose 50) without chemotherapeutic; conditions: Jurkat-DNR cells, inhibitor without chemotherapeutic
Experimental: Cells (ABCB1, Jurkat-DNR or ABCG2 Ig-MXP3) are incubated with the test compound (3 order of magnitude concentration range) over a 3-day and 7-day period in the presence of the inhibitor and chemotherapeutic (ABCB1, DNR or ABCG2 MTX), such that a cell concentration of at least 1×10^5 cells/mL is maintained. Cell viability is determined by trypan blue staining and enumeration under light microscopy. […] A chemoreversal index (Chemoreversal 50, CR50) is determined from the viability assessment. Using a similar approach, a direct cytotoxicity index (Toxic Dose 50, TD50) is determined by assessment of cell death of cells grown in media alone.
Cells (ABCB1, Jurkat-DNR or ABCG2 Ig-MXP3) were incubated with the test compound in a 3 order of magnitude concentration range over three and seven day periods in the presence of the inhibitor and chemotherapeutic (ABCB1, 100 nM DNR or ABCG2 30 nM MTX), such that a cell concentration of at least 1×10^5 cells mL^−1 was maintained. Cell viability was determined by trypan blue staining and enumeration under light microscopy. […] A chemoreversal index (Chemoreversal 50, CR50) was determined from the viability assessment. Using a similar approach, a direct cytotoxicity index (Toxic Dose 50, TD50) was determined by assessment of cell death of cells grown in media alone.

[4] = molecular target: T1, ABCG2 (Homo sapiens, UniProt Q9UNQ0); experiment: JC-1 efflux inhibition dose response, flow cytometry, Ig-MXP3 cells
T1 sequence (Q9UNQ0 1-655): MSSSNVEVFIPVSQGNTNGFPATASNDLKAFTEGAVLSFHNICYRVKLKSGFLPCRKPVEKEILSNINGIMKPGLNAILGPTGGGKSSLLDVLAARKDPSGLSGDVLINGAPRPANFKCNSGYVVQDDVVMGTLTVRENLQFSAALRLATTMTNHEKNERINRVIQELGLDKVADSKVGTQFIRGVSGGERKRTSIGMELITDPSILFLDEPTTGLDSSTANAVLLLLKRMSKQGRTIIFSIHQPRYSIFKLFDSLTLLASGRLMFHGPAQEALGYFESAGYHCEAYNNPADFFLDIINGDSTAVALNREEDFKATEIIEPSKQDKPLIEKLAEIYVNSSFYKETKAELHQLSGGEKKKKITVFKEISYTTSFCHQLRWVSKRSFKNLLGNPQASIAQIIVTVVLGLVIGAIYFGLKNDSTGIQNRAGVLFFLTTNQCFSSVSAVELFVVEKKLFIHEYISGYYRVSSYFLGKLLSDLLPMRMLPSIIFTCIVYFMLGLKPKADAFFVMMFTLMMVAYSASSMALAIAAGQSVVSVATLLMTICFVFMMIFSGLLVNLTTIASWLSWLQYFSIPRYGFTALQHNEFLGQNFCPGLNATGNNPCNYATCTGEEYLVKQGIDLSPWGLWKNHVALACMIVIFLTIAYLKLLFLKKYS
Procedure, shortened: (§1)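 Ig-MXP3 (ABCG2) and Jurkat-DNR (ABCB1) cells, run separately, are pre-stained with 1 μM JC-1 and added to compound in PBS; retained dye is read by high-throughput flow cytometry with time-gated analysis.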

[5] = molecular target: T2, ABCB1 / ABCG2 (Homo sapiens, UniProt Q9UNQ0); experiment: as above; conditions: human, probe JC-1 (1 µM), ~Fold G2 Selective (B1/G2), quotient of average ABCB1 IC50 and average ABCG2 IC50, efflux assay
T2 sequence (Q9UNQ0 1-655): T1 sequence (Q9UNQ0 1-655)
Procedure, shortened: as §1

[6] = molecular target: ABCB1 (Homo sapiens, UniProt P08183); experiment: JC-1 efflux inhibition dose response, flow cytometry, Jurkat-DNR cells; conditions: for IC50: IC50 ABCB1 (efflux inhibition of JC-1 substrate), Jurkat-DNR cells over-expressing ABCB1, averages of two to four replicates
Sequence of ABCB1 (P08183 whole entry): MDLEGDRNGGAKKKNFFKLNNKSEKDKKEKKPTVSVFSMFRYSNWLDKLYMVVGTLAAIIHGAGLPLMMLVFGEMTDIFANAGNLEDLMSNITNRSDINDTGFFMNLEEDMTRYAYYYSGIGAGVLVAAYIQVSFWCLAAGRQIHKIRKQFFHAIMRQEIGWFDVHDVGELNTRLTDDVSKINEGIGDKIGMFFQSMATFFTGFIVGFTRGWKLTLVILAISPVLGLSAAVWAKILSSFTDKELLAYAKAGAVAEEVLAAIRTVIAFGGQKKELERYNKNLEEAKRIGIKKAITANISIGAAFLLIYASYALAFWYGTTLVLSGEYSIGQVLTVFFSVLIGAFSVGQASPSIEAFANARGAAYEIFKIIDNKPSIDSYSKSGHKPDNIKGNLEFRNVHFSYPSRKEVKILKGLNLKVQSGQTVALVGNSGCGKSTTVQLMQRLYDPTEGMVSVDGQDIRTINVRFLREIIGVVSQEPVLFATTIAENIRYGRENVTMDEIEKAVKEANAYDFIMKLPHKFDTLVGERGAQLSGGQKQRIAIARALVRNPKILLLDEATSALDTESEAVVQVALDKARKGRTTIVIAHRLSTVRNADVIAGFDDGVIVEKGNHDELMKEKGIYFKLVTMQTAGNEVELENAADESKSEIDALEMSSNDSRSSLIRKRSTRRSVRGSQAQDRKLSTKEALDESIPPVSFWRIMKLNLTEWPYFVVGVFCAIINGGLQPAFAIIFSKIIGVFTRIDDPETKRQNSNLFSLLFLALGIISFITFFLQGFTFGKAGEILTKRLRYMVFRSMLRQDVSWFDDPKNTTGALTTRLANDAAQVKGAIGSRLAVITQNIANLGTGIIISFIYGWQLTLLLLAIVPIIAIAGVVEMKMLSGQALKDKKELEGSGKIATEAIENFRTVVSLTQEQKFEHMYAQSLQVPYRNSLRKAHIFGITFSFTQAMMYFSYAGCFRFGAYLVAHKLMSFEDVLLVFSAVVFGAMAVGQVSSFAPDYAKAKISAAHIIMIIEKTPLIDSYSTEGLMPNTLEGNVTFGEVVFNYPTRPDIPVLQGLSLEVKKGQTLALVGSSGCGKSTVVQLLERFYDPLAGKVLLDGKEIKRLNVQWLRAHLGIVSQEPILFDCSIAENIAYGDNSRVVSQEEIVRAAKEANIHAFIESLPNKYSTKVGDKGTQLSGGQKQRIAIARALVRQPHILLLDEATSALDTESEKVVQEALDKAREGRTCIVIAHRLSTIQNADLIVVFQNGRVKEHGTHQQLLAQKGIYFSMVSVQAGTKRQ
Procedure, shortened: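 Jurkat-DNR cells pre-stained with 1 μM JC-1 were incubated with compound (final 50 μM to 69 nM, […]) at 1×10^6 cells/mL, rotated 30 min at 25° C. Retained JC-1 read by flow cytometry (488 nm excitation, 530/40 nm emission). Curves fitted to a four-parameter logistic.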

[7] = test system: ABCB1 over-expressing Jurkat-DNR cells; experiment: Chemoreversal assay: potentiation of daunorubicin (DNR) killing; type: cell-based; conditions: constant 100 nM DNR, varied inhibitor dose, read-out: CR50 ABCB1
[8] = test system: ABCG2 over-expressing Igrov1/T8 tumors; experiment: ABCG2 resistant Igrov1/T8 tumor xenograft, combination with topotecan; type: in vivo, CB-17 SCID mice
Experimental: Specific-pathogen-free adult CB-17 female SCID mice (5-6 weeks of age) weighing 20-25 g, are purchased. Briefly, ABCG2 over-expressing Igrov1/T8 cells are injected (5×10^6 cells/mouse). Prior to injection, Igrov1/T8 cells are maintained in topotecan in order to assure continuous expression of ABCG2. Tumors are allowed to grow for 3-4 weeks or until tumor volumes are greater than ˜100 cubic millimeters, at which time they are stratified into treatment groups. Treatment is administered and we observe the size of the tumor and weight of the mouse over a 7 day period. At the end of 7 days, we: 1) sacrifice the animal; 2) measure and weigh the tumor (if present); 3) analyze the histology of the tumor as well as other organs for evidence of toxicity; and 4) measure the expression of ABCG2 receptors on the tumor to determine if in vivo growth has altered ABCG2 expression. In our initial studies, we have generally observed high survival at 4 weeks (>90%) which escalates rapidly with near 100% mortality by 6 weeks. This approach is well described elsewhere.^9
Tumor-bearing mice were injected with either 150 nM TPT, 100 nM SID 88095709 (probe resupply), or 500 nM SID 85752814 (original SMR hit).
Igrov1/T8 cells were injected into the hind limbs of CB-17 SCID mice at a concentration of 1×10^7 cells in 200 μL, n of 3 per condition. The tumor was grown until the volume was in the range of 75 mm^3 to 250 mm^3. […] Injections were repeated daily and the size of the tumor was determined as a fraction of the starting size. After four days the mice were sacrificed and any recurring tumor was verified by light microscopy examination of histological sections. Mice were studied and maintained in accordance with guidelines of our Institutional Animal Research Committee at UNM HSC.

CC(=O)N1CCN(c2cc(-c3ccco3)nc3cc(-c4ccccc4)nn23)CC1 [Compound 74]
TD50 ABCG2 [1]: >100 µM
EC50 [2]: 930 nM
TD50 ABCB1 [3]: 10.10 µM
IC50 [4]: 520 nM
selectivity ratio at 30 min [5]: 7
IC50 [6]: 3640 nM
EC50 [7]: 190 nM

COc1ccc(-c2cc3nc(-c4ccccc4)cc(N4CCN(C(=O)c5ccoc5)CC4)n3n2)cc1 [Compound 36]
TD50 ABCG2 [1]: >100 µM
EC50 [2]: 380 nM
TD50 ABCB1 [3]: 5.54 µM
IC50 [4]: 1160 ± 660 nM
selectivity ratio at 30 min [5]: 1.2
IC50 [6]: 1440 ± 700 nM
EC50 [7]: 230 nM

COc1cccc(-c2cc3nc(-c4ccco4)cc(N4CCN(C(C)=O)CC4)n3n2)c1 [Compound 88]
TD50 ABCG2 [1]: >100 µM
EC50 [2]: 1180 nM
TD50 ABCB1 [3]: 49.30 µM
IC50 [4]: 1900 nM
selectivity ratio at 30 min [5]: 0.9
IC50 [6]: 1640 nM
EC50 [7]: 320 nM

O=C(c1ccoc1)N1CCN(c2cc(-c3cccnc3)nc3cc(-c4cccc(Cl)c4)nn23)CC1 [Compound 30]
TD50 ABCG2 [1]: 5.77 µM
EC50 [2]: 20 nM
TD50 ABCB1 [3]: 5.33 µM
IC50 [4]: 270 ± 120 nM
selectivity ratio at 30 min [5]: 2.9
IC50 [6]: 770 ± 280 nM
EC50 [7]: 200 nM

O=C(c1ccoc1)N1CCN(c2cc(-c3ccco3)nc3cc(-c4ccco4)nn23)CC1 [Compound 52]
TD50 ABCG2 [1]: >100 µM
EC50 [2]: 1210 nM
TD50 ABCB1 [3]: 1.93 µM
IC50 [4]: 2350 nM
selectivity ratio at 30 min [5]: 0.7
IC50 [6]: 1700 nM
EC50 [7]: 190 nM

COc1cccc(C(=O)N2CCN(c3cc(-c4ccccc4)nc4cc(-c5cccc(Cl)c5)nn34)CC2)c1 [Compound 15]
TD50 ABCG2 [1]: >100 µM
EC50 [2]: 210 nM
TD50 ABCB1 [3]: >100 µM
IC50 [4]: 4450 ± 4680 nM
selectivity ratio at 30 min [5]: 0.6
IC50 [6]: 2640 ± 640 nM
EC50 [7]: 350 nM

COc1cccc(-c2cc(N3CCN(C(=O)c4ccoc4)CC3)n3nc(-c4ccccc4)cc3n2)c1 [Compound 65]
TD50 ABCG2 [1]: 67.80 µM
EC50 [2]: 680 nM
TD50 ABCB1 [3]: 5.77 µM
IC50 [4]: 200 nM
~Fold G2 Selective (B1/G2) ([4]; quotient of average ABCB1 IC50 and average ABCG2 IC50, efflux assay): 82.1 fold
selectivity ratio at 30 min [5]: 83
IC50 [6]: 16400 nM
EC50 [7]: 180 nM

CC(=O)N1CCN(c2cc(-c3ccco3)nc3cc(-c4cccc(Cl)c4)nn23)CC1 [Compound 87]
TD50 ABCG2 [1]: >100 µM
EC50 [2]: 580 nM
TD50 ABCB1 [3]: 17.60 µM
IC50 [4]: 560 nM
selectivity ratio at 30 min [5]: 1.4
IC50 [6]: 800 nM
EC50 [7]: 80 nM

O=C(c1ccoc1)N1CCN(c2cc(-c3ccco3)nc3cc(-c4cccc(Cl)c4)nn23)CC1 [Compound 53]
TD50 ABCG2 [1]: 10.80 µM
EC50 [2]: 1380 nM
TD50 ABCB1 [3]: 8.53 µM
IC50 [4]: 2550 nM
selectivity ratio at 30 min [5]: 2.5
IC50 [6]: 6420 nM
EC50 [7]: 530 nM

O=C(c1ccoc1)N1CCN(c2cc(-c3ccncc3)nc3cc(-c4cccc(Cl)c4)nn23)CC1 [Compound 31]
TD50 ABCG2 [1]: 57.80 µM
EC50 [2]: 890 nM
TD50 ABCB1 [3]: 13.50 µM
IC50 [4]: 1460 ± 350 nM
selectivity ratio at 30 min [5]: 2.5
IC50 [6]: 3680 ± 350 nM
EC50 [7]: 600 nM

O=C(Cc1ccccc1)N1CCN(c2cc(-c3ccccc3)nc3cc(-c4cccc(Cl)c4)nn23)CC1 [Compound 24]
TD50 ABCG2 [1]: >100 µM
EC50 [2]: 600 nM
TD50 ABCB1 [3]: 17.80 µM
IC50 [4]: 5760 ± 3400 nM
selectivity ratio at 30 min [5]: 0.8
IC50 [6]: 4680 ± 2690 nM
EC50 [7]: 510 nM

COc1ccccc1-c1cc2nc(-c3ccccc3)cc(N3CCN(C(=O)c4ccoc4)CC3)n2n1 [Compound 34]
TD50 ABCG2 [1]: 6.50 µM
EC50 [2]: 490 nM
TD50 ABCB1 [3]: 4.37 µM
IC50 [4]: 450 ± 170 nM
selectivity ratio at 30 min [5]: 4.8
IC50 [6]: 2170 ± 760 nM
EC50 [7]: 450 nM

O=C(c1cccnc1)N1CCN(c2cc(-c3ccccc3)nc3cc(-c4cccc(Cl)c4)nn23)CC1 [Compound 20]
TD50 ABCG2 [1]: 10.30 µM
EC50 [2]: 130 nM
TD50 ABCB1 [3]: 4.72 µM
IC50 [4]: 230 ± 150 nM
selectivity ratio at 30 min [5]: 2.5
IC50 [6]: 570 ± 80 nM
EC50 [7]: 170 nM

O=C(c1ccoc1)N1CCN(c2cc(-c3ccoc3)nc3cc(-c4ccccc4)nn23)CC1 [Compound 61]
TD50 ABCG2 [1]: 18.30 µM
EC50 [2]: 760 nM
TD50 ABCB1 [3]: 7.33 µM
IC50 [4]: 1400 nM
selectivity ratio at 30 min [5]: 1.1
IC50 [6]: 1600 nM
EC50 [7]: 420 nM

COc1ccccc1-c1cc(N2CCN(C(=O)c3ccoc3)CC2)n2nc(-c3ccccc3)cc2n1 [Compound 44]
TD50 ABCG2 [1]: 7.62 µM
EC50 [2]: 680 nM
TD50 ABCB1 [3]: 3.73 µM
IC50 [4]: 3660 ± 2540 nM
selectivity ratio at 30 min [5]: 1.2
IC50 [6]: 4520 nM and 4620 nM
EC50 [7]: 170 nM

COc1ccc(-c2cc3nc(-c4ccco4)cc(N4CCN(C(=O)c5ccoc5)CC4)n3n2)cc1 [Compound 57]
TD50 ABCG2 [1]: >100 µM
EC50 [2]: 760 nM
TD50 ABCB1 [3]: >100 µM
IC50 [4]: 890 nM
selectivity ratio at 30 min [5]: 3.9
IC50 [6]: 3450 nM
EC50 [7]: 5770 nM

O=C(c1ccncc1)N1CCN(c2cc(-c3ccccc3)nc3cc(-c4cccc(Cl)c4)nn23)CC1 [Compound 21]
TD50 ABCG2 [1]: 28.30 µM
EC50 [2]: 150 nM
TD50 ABCB1 [3]: 10.90 µM
IC50 [4]: 1030 ± 230 nM
selectivity ratio at 30 min [5]: 1.1
IC50 [6]: 1160 ± 300 nM
EC50 [7]: 250 nM

COc1cccc(-c2cc3nc(C)c(C)c(N4CCN(Cc5ccoc5)CC4)n3n2)c1 [SID 97301789]
TD50 ABCG2 [1]: > 100 µM
TD50 ABCB1 [3]: > 100 µM
Tumor size reduced by ([8]; 100 nM topotecan + 100 nM compound intra-tumorally every 24 hours, 5 days (120 hours), n=5): 55%
tumor size, inhibitor alone ([8]; inhibitor alone (100 nM or 500 nM as printed), Example 3): No reduction in size
selectivity ratio at 30 min [5]: 233
efflux inhibition activity ABCB1 ([6]; JC-1 efflux, Jurkat-DNR): abolished activity
